BindingDB's records for doi:10.1038/nchembio.1603 (Glaxosmithkline, 2014)

Target: Fatty acid synthase (Homo sapiens, UniProt P49327)
Test: FAS Assay No1
Description: Inhibition of FAS by benzimidazole was measured by an endpoint assay for NADPH consumption.

Fatty acid synthase, sequence (P49327 whole entry): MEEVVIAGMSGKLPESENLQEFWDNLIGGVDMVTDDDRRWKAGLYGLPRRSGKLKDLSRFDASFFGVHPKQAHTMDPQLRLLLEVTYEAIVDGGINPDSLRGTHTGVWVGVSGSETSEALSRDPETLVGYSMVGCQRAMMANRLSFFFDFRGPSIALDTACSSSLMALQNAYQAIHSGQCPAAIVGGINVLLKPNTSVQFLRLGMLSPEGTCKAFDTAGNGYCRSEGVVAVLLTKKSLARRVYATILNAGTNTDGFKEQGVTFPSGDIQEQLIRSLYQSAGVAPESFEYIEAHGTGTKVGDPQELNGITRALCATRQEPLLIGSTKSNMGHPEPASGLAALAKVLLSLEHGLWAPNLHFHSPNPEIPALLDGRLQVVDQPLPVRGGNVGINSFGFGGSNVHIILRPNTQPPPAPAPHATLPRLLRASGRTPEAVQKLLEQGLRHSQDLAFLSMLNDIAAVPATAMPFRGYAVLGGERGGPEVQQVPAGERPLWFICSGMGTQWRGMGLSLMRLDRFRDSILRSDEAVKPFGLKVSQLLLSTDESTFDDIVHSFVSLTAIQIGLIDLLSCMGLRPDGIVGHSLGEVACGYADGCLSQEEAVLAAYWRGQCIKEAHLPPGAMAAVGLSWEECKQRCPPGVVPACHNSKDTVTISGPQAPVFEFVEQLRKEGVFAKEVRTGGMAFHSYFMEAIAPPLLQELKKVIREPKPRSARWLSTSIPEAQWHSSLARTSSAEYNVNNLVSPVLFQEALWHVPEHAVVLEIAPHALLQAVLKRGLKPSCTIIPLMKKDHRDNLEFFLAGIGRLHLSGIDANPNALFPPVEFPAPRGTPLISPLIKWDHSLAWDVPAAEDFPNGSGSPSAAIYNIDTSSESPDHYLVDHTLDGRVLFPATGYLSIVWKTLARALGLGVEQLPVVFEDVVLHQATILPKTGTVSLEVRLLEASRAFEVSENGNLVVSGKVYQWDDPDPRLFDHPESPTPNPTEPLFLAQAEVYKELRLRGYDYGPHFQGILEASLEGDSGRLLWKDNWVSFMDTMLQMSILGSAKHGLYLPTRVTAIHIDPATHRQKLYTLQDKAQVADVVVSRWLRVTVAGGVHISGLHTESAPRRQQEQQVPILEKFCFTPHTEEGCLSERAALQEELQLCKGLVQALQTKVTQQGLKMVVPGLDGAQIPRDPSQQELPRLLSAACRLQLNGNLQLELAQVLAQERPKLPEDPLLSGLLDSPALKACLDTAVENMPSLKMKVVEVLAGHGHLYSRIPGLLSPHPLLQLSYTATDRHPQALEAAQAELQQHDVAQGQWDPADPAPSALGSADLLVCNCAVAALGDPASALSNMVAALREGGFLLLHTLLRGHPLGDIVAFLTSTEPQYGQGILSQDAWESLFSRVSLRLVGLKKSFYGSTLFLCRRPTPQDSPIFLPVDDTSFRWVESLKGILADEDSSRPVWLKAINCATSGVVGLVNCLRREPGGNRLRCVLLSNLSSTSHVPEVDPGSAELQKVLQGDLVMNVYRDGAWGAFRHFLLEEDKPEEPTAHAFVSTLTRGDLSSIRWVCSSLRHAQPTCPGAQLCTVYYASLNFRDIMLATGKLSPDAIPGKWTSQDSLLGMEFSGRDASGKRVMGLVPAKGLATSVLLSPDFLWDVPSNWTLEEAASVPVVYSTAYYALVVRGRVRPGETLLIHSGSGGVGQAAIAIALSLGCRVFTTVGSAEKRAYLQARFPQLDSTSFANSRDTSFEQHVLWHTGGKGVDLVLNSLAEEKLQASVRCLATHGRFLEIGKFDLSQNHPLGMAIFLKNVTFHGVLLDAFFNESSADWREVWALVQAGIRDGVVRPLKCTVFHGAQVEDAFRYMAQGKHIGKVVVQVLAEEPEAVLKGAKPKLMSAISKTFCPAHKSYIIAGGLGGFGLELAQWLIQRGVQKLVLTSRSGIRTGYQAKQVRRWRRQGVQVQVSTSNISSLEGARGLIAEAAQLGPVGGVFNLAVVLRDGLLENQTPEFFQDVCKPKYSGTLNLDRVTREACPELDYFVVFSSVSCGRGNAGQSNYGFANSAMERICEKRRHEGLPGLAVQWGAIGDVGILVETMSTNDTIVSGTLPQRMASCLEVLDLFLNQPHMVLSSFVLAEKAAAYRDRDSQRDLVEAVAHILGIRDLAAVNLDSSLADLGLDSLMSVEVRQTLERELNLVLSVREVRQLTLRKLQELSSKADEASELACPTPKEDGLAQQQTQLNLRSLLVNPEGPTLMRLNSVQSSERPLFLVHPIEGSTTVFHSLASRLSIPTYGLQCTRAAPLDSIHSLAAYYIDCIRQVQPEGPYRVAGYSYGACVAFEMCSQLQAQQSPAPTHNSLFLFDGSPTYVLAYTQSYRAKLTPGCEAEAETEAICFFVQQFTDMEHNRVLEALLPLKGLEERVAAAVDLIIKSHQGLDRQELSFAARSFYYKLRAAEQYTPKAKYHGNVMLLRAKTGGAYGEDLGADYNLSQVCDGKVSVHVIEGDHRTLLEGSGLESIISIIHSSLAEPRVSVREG

- IC50: 1 µM
SMILES: CNC(=O)c1ccc2nc(-c3ccc(-c4ccccc4)cc3)n(CC3CCN(C(=O)C4CC4)C3)c2c1 (stereo unspecified) [2-([1,1'-Biphenyl]-4-yl)-1-((1-(cyclopropanecarbonyl)pyrrolidin-3-yl)methyl)-N-methyl-1H-benzo[d]imidazole-6-carboxamide]
